In patent US5723609A, “Bis (hydroxymethyl) cyclobutyl purines” (E. R. Squibb & Sons, Inc., priority 1989, dated 1998):
Where two headings read alike, the source gives them in different places.

Legend:
[1] = system: HSV-2; assay: HSV-2 plaque reduction antiviral assay in WI-38 cell monolayers; type: cell-based, herpes simplex virus type 2, strain 186
Experimental: (§1) Assays were performed in cell culture systems to determine the concentrations of compounds that are effective in preventing several kinds of viral infections.
(§2) HSV-1 (herpes simplex virus type 1, strain Schooler), HSV-2 (herpes simplex virus type 2, strain 186), VZV (varicella zoster virus, strain ELLEN), HCMV (human cytomegalovirus, strain AD 169), MuLV (murine leukemia virus, strain CAS), HIV (human immunodeficiency virus, strain HTLV-IIIB).
(§3) HSV-1, HSV-2, HCMV, and VZV antiviral assays:
(§4) Virus was adsorbed to WI-38 cell culture monolayers in 6 well culture plates (Costar, Cambridge, Mass.) for 1 hour prior to addition of maintenance medium containing duplicate dilutions of the test compound. Inhibition of plaque development was evaluated on fixed and stained monolayers after 4 days incubation at 37° C. for HSV-1 and HSV-2 and after 6-7 days incubation at 37° C. for HCMV and VZV. ID50 values were determined from the drug concentration which conferred at least a 50% plaque reduction compared to virus controls.

[2] = system: VZV; assay: VZV plaque reduction antiviral assay in WI-38 cell monolayers; type: cell-based, varicella zoster virus; conditions: Human alphaherpesvirus 3; VZV strain ELLEN; WI-38 cells; 6-7 days at 37° C.; at least 50% plaque reduction; read-out: ID50 (the source's name)
Experimental: as §1, §2, §3, §4

[3] = system: HSV-1; assay: HSV-1 plaque reduction antiviral assay in WI-38 cell monolayers; type: cell-based, herpes simplex virus type 1; conditions: Human alphaherpesvirus 1, 96 h; HSV-1 strain Schooler; WI-38 cells; 4 days at 37° C.; at least 50% plaque reduction; read-out: ID50 (the source's name)
Experimental: as §1, §2, §3, §4

[4] = system: HCMV; assay: HCMV plaque reduction antiviral assay in WI-38 cell monolayers; type: cell-based, human cytomegalovirus; conditions: Human betaherpesvirus 5; HCMV strain AD 169; WI-38 cells; 6-7 days at 37° C.; at least 50% plaque reduction; read-out: ID50 (the source's name)
Experimental: as §1, §2, §3, §4

[5] = system: HIV; assay: HIV antiviral assay, cytopathic effect in CEM cells (XTT-PMS); type: cell-based; conditions: Human immunodeficiency virus 1, CCRF-CEM, 168 h, HIV strain HTLV-IIIB, 7 days at 37° C., inhibits CPE by 50%, read-out: ID50 (the source's name)
Experimental: as §1, §2
HIV antiviral assay: Suspensions of CEM(Nara and Fischinger, Nature, 332:469, 1988) cells were infected at a multiplicity of infection (e.g. virus/cell) of 0.12 with HIV (strain HTLV-III B). […] Following incubation, viable cell numbers were counted in each well using a colorimetric assay following incubation of cells with XTT-PMS solution (XTT tetrazolium reagent plus phenazine methosulfate PMS).
Percent reduction of vital cytopathic effect (CPE) in drug treated compared to untreated virus infected cells, and percent reduction of cell viability in drug treated uninfected cells compared to untreated controls were calculated and plotted versus the drug concentrations tested. […]

[6] = system: MuLV; assay: MuLV antiviral assay, syncytial plaques (SC-1 cells, XC cell overlay); type: cell-based; conditions: Murine leukemia virus, SC1, MuLV strain CAS, read-out: ID50 (the source's name)
Experimental: as §1, §2
Antiviral assays using MuLV were performed with some modification, as described by Rowe et al. and Shannon et al., SC-1 cells were planted at approximately 2×10^5 cell per well in 6 well plates. After overnight incubation at 37° C., the cell cultures were sensitized with DEAE-Dextran for one hour at 37° C., rinsed and inoculated with MuLV. Cultures were re-fed with growth medium containing different concentrations of the test compound. After three more days at 37° C., cultures were re-fed with fresh medium plus test compounds and incubated at 37° C. for an additional 3 days. Cultures were then washed to remove medium, ultraviolet light irradiated, and planted with approximately 5×10^5 XC cells per well in cell growth medium containing the appropriate concentration of the test compound. […] Finally the cultures were rinsed, stained and syncytial plaques were counted.

[7] = Human alphaherpesvirus 2, WI-38, 96 h, read-out: ID50
[8] = Human alphaherpesvirus 2, 96 h, HSV-2 strain 186, WI-38 cells, 4 days at 37° C., at least 50% plaque reduction, read-out: ID50 (the source's name)

Compound	IC50 [1, 7] [µM]	IC50 [2] [µM]	IC50 [3] [µM]	IC50 [4] [µM]	IC50 [1, 8] [µM]	IC50 [5] [µM]	IC50 [6] [µM]
O=c1[nH]c(=O)n([C@@H]2C[C@H](CO)[C@H]2CO)cc1I (relative stereo) [(1α,2β,3α)-1-[2,3-Bis(hydroxymethyl)cyclobutyl]-5-iodo-2,4(1H,3H)-pyrimidinedione]	> 284	14 to 28	6 to 14	> 284			
Nc1ncnc2c1ncn2[C@@H]1C[C@H](CO)[C@H]1CO (relative stereo) [(1α,2β,3α)-3-(6-Amino-9H-purin-9-yl)-1,2-cyclobutanedimethanol]		0.8 to 2	8	0.8	4 to 8	6.8	
Nc1ccn([C@@H]2C[C@H](CO)[C@H]2CO)c(=O)n1 (relative stereo) [(1α,2β,3α)-4-Amino-1-[2,3-bis(hydroxymethyl)cyclobutyl]-2(1H)-pyrimidinone]		22	444	22 to 44	444		
Nc1nc2c(nnn2[C@@H]2C[C@H](CO)[C@H]2CO)c(=O)[nH]1 (relative stereo) [(1α,2β,3α)-5-Amino-3-[2,3-bis(hydroxymethyl)cyclobutyl]-3,6-dihydro-7H-1,2,3-triazolo[4,5-d]pyrimidin-7-one]		3.8 to 38	7.5	376	7.5		
Nc1nc2c(ncn2[C@@H]2C[C@H](CO)[C@H]2CO)c(=O)[nH]1 (relative stereo) [(1α,2β,3α)-9-[2,3-Bis(hydroxymethyl)cyclobutyl]guanine]		0.2	0.08 to 0.2	3.8	0.04 to 0.08	30	3.8
O=c1[nH]c(=O)n([C@@H]2C[C@H](CO)[C@H]2CO)cc1/C=C/Br (relative stereo) [[1α(E),2β,3α]-1-[2,3-Bis(hydroxymethyl)cyclobutyl]-5-(2-bromoethenyl)-2,4(1H,3H)pyrimidinedione]	> 302	0.03 to 0.06	10 to 30	> 302			
